Assay results: ChEMBL document CHEMBL5303304, “EUbOPEN Chemogenomics Library - IncuCyte” (2023)

Tests used:
Type in all cases: toxicity, cell-based
Fibroblast = experiment: Incucyte cell viability with human fibroblast; settings: 10 µM, compound concentration 10 uM
HEK-293T = experiment: Incucyte cell viability with HEK293T; settings: human, 10 µM, compound concentration 10 uM
U2OS = experiment: Incucyte cell viability with U2OS; settings: human, 10 µM, compound concentration 10 uM
Note: unitless GR value; below 1 slowed growth and below 0 cell loss.

Row | SMILES | Growth Rate (Fibroblast; 6 h, replicate number 2) | Growth Rate (Fibroblast; 12 h, replicate number 2) | Growth Rate (Fibroblast; 18 h, replicate number 1) | Growth Rate (Fibroblast; 18 h, replicate number 2) | Growth Rate (Fibroblast; 24 h, replicate number 1) | Growth Rate (Fibroblast; 24 h, replicate number 2) | Growth Rate (HEK-293T; 0 h, replicate number 2) | Growth Rate (HEK-293T; 6 h, replicate number 2) | Growth Rate (HEK-293T; 12 h, replicate number 2) | Growth Rate (U2OS; 0 h, replicate number 1) | Growth Rate (U2OS; 6 h, replicate number 1) | Growth Rate (U2OS; 6 h, replicate number 2) | Growth Rate (U2OS; 12 h, replicate number 1) | Growth Rate (U2OS; 12 h, replicate number 2) | Growth Rate (U2OS; 18 h, replicate number 1) | Growth Rate (U2OS; 18 h, replicate number 2) | Growth Rate (U2OS; 24 h, replicate number 1) | Growth Rate (U2OS; 24 h, replicate number 2) | Growth Rate (Fibroblast; 0 h, replicate number 1) | Growth Rate (HEK-293T; 0 h, replicate number 1) | also measured
1 | CCCCCNC(=O)N1CCC(CN(Cc2ccc(Cl)cc2)Cc2ccc([N+](=O)[O-])s2)C1 (stereo unspecified) [SR9011] | -0.29 | 0.55 | 0.55 | 0.66 | 0.54 | 0.64 | -0.74 | 0.86 | 0.62 | 0.35 | 0.88 | 0.94 | 0.81 | 0.86 | 0.9 | 0.94 | 0.85 | 0.83 | – | – | Growth Rate (Fibroblast; 6 h, replicate number 1): 0.11; Growth Rate (Fibroblast; 12 h, replicate number 1): 0.48; Growth Rate (HEK-293T; 6 h, replicate number 1): 0.47; Growth Rate (HEK-293T; 12 h, replicate number 1): 0.42; Growth Rate (HEK-293T; 18 h, replicate number 1): 0.51; Growth Rate (HEK-293T; 18 h, replicate number 2): 0.59; Growth Rate (HEK-293T; 24 h, replicate number 1): 0.54; Growth Rate (HEK-293T; 24 h, replicate number 2): 0.49
2 | Cc1[nH]c2c(N3CCCCC3)c(-c3ccccc3)nn2c(=O)c1-c1ccc(O)cc1 | 0.19 | 0.39 | 0.73 | 0.35 | 0.64 | 0.24 | – | 0.55 | 0.88 | -0.56 | 0.77 | 0.87 | 0.9 | 0.92 | 0.85 | 0.93 | 0.78 | 0.82 | -0.08 | -0.59 | Growth Rate (HEK-293T; 6 h, replicate number 1): 0.95
3 | CC(=O)Nc1cccc(-n2c(=O)n(C3CC3)c(=O)c3c(Nc4ccc(I)cc4F)n(C)c(=O)c(C)c32)c1 [TRAMETINIB] | – | – | – | – | – | – | -0.7 | 0.92 | 0.78 | 0.34 | 0.99 | 0.66 | 0.58 | 0.91 | 0.53 | 0.85 | 0.9 | 0.74 | – | 0.04 | Growth Rate (Fibroblast; 6 h, replicate number 1): 0.65; Growth Rate (U2OS; 0 h, replicate number 2): 0.61
4 | CC1CCN(C(=O)[C@@H](CCn2cccc2C#N)NS(=O)(=O)c2cccc3[nH]ccc23)CC1 | – | – | – | 0.96 | – | – | – | 0.99 | – | 0.26 | 0.55 | 0.85 | – | 0.81 | – | – | 0.86 | – | – | – | Growth Rate (Fibroblast; 0 h, replicate number 2): -0.84
5 | O=C(O)/C=C/c1ccc(Cn2ccnc2)cc1 [OZAGREL] | – | – | 0.97 | – | 0.78 | – | 0.4 | – | 0.92 | – | 0.91 | – | – | 0.94 | – | – | 0.94 | – | -1 | 0.5 | Growth Rate (Fibroblast; 0 h, replicate number 2): -0.85; Growth Rate (HEK-293T; 18 h, replicate number 1): 0.96; Growth Rate (U2OS; 0 h, replicate number 2): 0.65
6 | CCCn1cc(-c2cc(C3C(=O)N(CC)c4ccc(C(F)(F)F)cc4N(c4ccccc4)C3=O)cc(OC)c2O)cn1 (stereo unspecified) | -0.56 | 0.46 | – | 0.74 | – | 0.85 | 0.59 | – | – | – | – | – | – | – | – | – | 0.91 | – | – | 0.67 | Growth Rate (Fibroblast; 0 h, replicate number 2): 0.51; Growth Rate (Fibroblast; 6 h, replicate number 1): 0.92
7 | CNc1nc(-c2ccc3c(N)n[nH]c3c2)cc(N2C[C@@H](C(=O)NC3CCCCC3)CC[C@H]2C)n1 | – | 0.96 | 0.38 | 0.7 | 0.22 | 0.64 | -0.02 | – | 0.66 | – | – | – | 0.7 | 0.8 | 0.49 | 0.82 | 0.51 | 0.72 | -0.99 | -1 | Growth Rate (Fibroblast; 12 h, replicate number 1): 0.62; Growth Rate (HEK-293T; 12 h, replicate number 1): 0.89; Growth Rate (HEK-293T; 18 h, replicate number 1): 0.8; Growth Rate (HEK-293T; 18 h, replicate number 2): 0.55; Growth Rate (HEK-293T; 24 h, replicate number 1): 0.72; Growth Rate (HEK-293T; 24 h, replicate number 2): 0.55
8 | CC(C)[C@H](C(=O)Nc1ccc(C(=O)NO)cc1)c1ccccc1 [AR-42] | 0.66 | 0.61 | -0.41 | 0.42 | 0.78 | 0.61 | 0.49 | – | – | – | – | 0.73 | 0.83 | 0.96 | 0.46 | 0.44 | 0 | 0.11 | 0.71 | -0.15 | Growth Rate (Fibroblast; 0 h, replicate number 2): 0.62; Growth Rate (Fibroblast; 12 h, replicate number 1): -1; Growth Rate (HEK-293T; 18 h, replicate number 2): 0.59; Growth Rate (HEK-293T; 24 h, replicate number 1): 0.89; Growth Rate (HEK-293T; 24 h, replicate number 2): 0.37
9 | NS(=O)(=O)c1ccc(Nc2nc(OCC3CCCCC3)c3nc[nH]c3n2)cc1 | – | 0.55 | – | 0.56 | – | – | – | – | 0.98 | -0.84 | -0.3 | – | 0.53 | – | 0.8 | 0.94 | 0.87 | 0.93 | -1 | 0.76 | Growth Rate (HEK-293T; 18 h, replicate number 2): 0.9; Growth Rate (HEK-293T; 24 h, replicate number 2): 0.82
